Results from US6525059B1, “Substituted pyrazoles as p38 kinase inhibitors” (G. D. Searle & Company, priority 1998, dated 2003).
Like-named read-outs stand apart in the source and are kept apart here.

Legend:
[1] = target: T1, human GST-p38 kinase alpha (Homo sapiens, UniProt Q16539); assay: p38 kinase in vitro assay, second format, phosphorylation of EGFRP with 33P-ATP; assay type: biochemical; details: EGFRP assay procedure
T1 construct: The coding region of the human p38a cDNA was obtained by PCR-amplification from RNA isolated from the human monocyte cell line THP.1; made in house; host or cells: E. coli DH10B
Procedure, shortened: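 Activated human GST-p38α (pre-activated with GST-MKK6, 1 h, 30 °C) phosphorylates EGFR 21-mer peptide (200 μM) with 50 μM ATP plus γ-33P-ATP, pH 7.5, 60 min at room temperature. Unreacted ATP removed by AG 1×8 resin; supernatant scintillation-counted.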

TNF-α = assay: LPS stimulation of TNF production by U937 cells; assay type: cell-based, human; details: Homo sapiens, U-937, LPS-stimulated U937 cells; read-out: U937 IC50
Procedure, shortened: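 PMA-differentiated human U937 cells (20 ng/ml PMA, 24 h, then 24-48 h rest) at 2 million cells/ml, 0.1% DMSO final, stimulated with E. coli LPS (100 ng/ml final) for 4 h at 37° C. TNF-α in medium measured by ELISA; IC50 in μM.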

TNF alpha = assay: Mouse model of LPS-induced TNF alpha production; assay type: in vivo; details: mouse, oral, 1h before LPS, 30 mpk; read-out: mLPS 1h, 30 mpk percent inhibition
Experimental: TNF alpha was induced in 10-12 week old BALB/c female mice by tail vein injection with 100 ng lipopolysaccharide (from S. Typhosa) in 0.2 ml saline. One hour later mice were bled from the retroorbital sinus and TNF concentrations in serum from clotted blood were quantified by ELISA.
Efficacy was determined at each time point as percent inhibition of serum TNF levels relative to LPS injected mice that received vehicle only
wherein in the dose is milligram per kilogram (mpk) administered by oral gavage and the predose time indicates the number of hours before LPS challenge when the compound is administered.

human p38 kinase alpha = target: T2, human p38 kinase alpha (Homo sapiens, UniProt Q16539); assay: p38 kinase in vitro assay, phosphorylation of biotinylated PHAS-I with gamma 32P-ATP; assay type: biochemical; details: p38α in vitro, PHAS-I assay procedure; read-out: p38^1 IC50
T2 construct: The coding region of the human p38a cDNA was obtained by PCR-amplification from RNA isolated from the human monocyte cell line THP.1; GST (N); made in house; host or cells: E. coli DH10B
Procedure, shortened: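 MKK6-activated human p38α phosphorylates biotinylated PHAS-I with γ-32P-ATP in 25 mM HEPES pH 7.5, 10 mM Mg acetate, 50 μM unlabeled ATP, 1% DMSO, 30 °C for 1 h or overnight. Compounds at 100–0.001 μM (10-fold steps, triplicate); substrate captured on streptavidin filter plates and counted by scintillation.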

[2] = p38α in vitro, read-out: p38^2 IC50

T2 sequence (Q16539 whole entry): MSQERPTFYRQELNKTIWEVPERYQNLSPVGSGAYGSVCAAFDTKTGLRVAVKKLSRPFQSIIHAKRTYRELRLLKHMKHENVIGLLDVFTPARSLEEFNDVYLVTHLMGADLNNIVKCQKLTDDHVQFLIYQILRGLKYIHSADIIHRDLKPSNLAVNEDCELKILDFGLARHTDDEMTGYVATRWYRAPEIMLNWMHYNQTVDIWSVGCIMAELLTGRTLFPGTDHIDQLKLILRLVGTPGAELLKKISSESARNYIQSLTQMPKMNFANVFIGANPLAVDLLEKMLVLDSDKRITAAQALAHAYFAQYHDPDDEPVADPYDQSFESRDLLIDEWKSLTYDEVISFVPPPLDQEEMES
T1 sequence (Q16539 whole entry): as above

| Compound | IC50 [1, 2] | IC50 (TNF-α) | IC50 (human p38 kinase alpha) | melting point | inhibition in vivo at 30 mg/kg (TNF alpha) | IC50 ([1]; p38^2 IC50, p38α in vitro) |
| --- | --- | --- | --- | --- | --- | --- |
| CCC(CO)Nc1cc(-c2c[nH]nc2-c2ccc(F)cc2)ccn1 (stereo not shown) [Example A-213, 2-[[4-[3-(4-fluorophenyl)-1H-pyrazol-4-yl]-2-pyridinyl]amino)-1-butanol] | 220 nM | – | – | – | 57% | – |
| Fc1ccc(-c2nn(CCN3CCOCC3)cc2-c2ccncc2)cc1 [Example A-216, 4-[2-[3-(4-fluorophenyl)-4-(4-pyridinyl)-1H-pyrazol-1-yl]ethyl)morpholine] | 18 nM | 1830 nM | – | – | 91% | – |
| Fc1cccc(-c2n[nH]cc2-c2ccncc2)c1 [Example A-227, 4-[3-(3-fluorophenyl)-1H-pyrazol-4-yl]pyridine] | 60 nM | – | – | – | 96% | – |
| Clc1ccc(-c2n[nH]cc2-c2ccncc2)cc1 [Example A-230, 4-[3-(4-chlorophenyl)-1H-pyrazol-4-yl]pyridine] | 178 nM | – | 420 nM | – | 96% | – |
| Cn1cc(-c2ccncc2)c(-c2ccc3c(c2)OCO3)n1 [Example A-231, 4-[3-(1,3-benzodioxol-5-y)-1-methyl-1H-pyrazol-4-yl]pyridine] | 174 nM | 322 nM | – | – | 94% | – |
| Cn1cc(-c2ccncc2)c(-c2ccc(Cl)cc2)n1 [Example A-232, 4-[3-(4-chlorophenyl)-1-methyl-1H-pyrazol-4-yl]pyridine] | 48 nM | – | – | – | 96% | – |
| c1ccc(-c2n[nH]cc2-c2ccncc2)cc1 [Example A-236, 4-(3-phenyl-1H-pyrazol-4-yl)pyridine] | – | – | – | – | 94% | 237 nM |
| FC(F)(F)c1cccc(-c2n[nH]cc2-c2ccncc2)c1 [Example A-237, 4-[3-[3-(trifluoromethyl)phenyl]-1H-pyrazol-4-yl]pyridine] | 93 nM | 87 nM | – | – | 60% | – |
| Fc1ccc(-c2n[nH]cc2-c2ccncc2)cc1F [Example A-239, 4-[3-(3,4-difluorophenyl)-1H-pyrazol-4-yl]pyridine] | 34 nM | – | – | – | 87% | – |
| Fc1cc(-c2c[nH]nc2-c2ccc(Cl)cc2)ccn1 [Example A-240, 4-[3-(4-chlorophenyl)-1H-pyrazol-4-yl]-2-fluoropyridine] | 961 nM | – | – | – | 85% | – |
| Cn1cc(-c2ccncc2)c(-c2ccc(Br)cc2)n1 [Example A-243, 4-[3-(4-bromophenyl)-1-methyl-1H-pyrazol-4-yl]pyridine] | 729 nM | – | – | – | 82% | – |
| Cn1cc(-c2ccncc2)c(-c2ccc(C(F)(F)F)cc2)n1 [Example A-252, 4-[1-methyl-3-[4-(trifluoromethyl)phenyl]-1H-pyrazol-4-yl]pyridine] | 774 nM | 1200 nM | – | – | 75% | – |
| Cc1cnccc1-c1cn(C)nc1-c1ccc(F)cc1 [Example A-259, 4-[3-(4-fluorophenyl)-1-methyl-1H-pyrazol-4-yl]-3-methylpyridine] | 170 nM | 757 nM | – | – | 62% | – |
| CN(C)CCn1cc(-c2ccncc2)c(-c2ccc(F)cc2)n1 [Example A-261, 3-(4-fluorophenyl)-N,N-dimethyl-4-(4-pyridinyl)-1H-pyrazole-1-ethanamine] | 8 nM | 254 nM | – | – | 92% | – |
| Fc1ccc(-c2n[nH]cc2-c2ccnc(NC3CCN(Cc4ccccc4)CC3)c2)cc1 [Example A-263, 4-[3-(4-fluorophenyl)-1H-pyrazol-4-yl]-N-[1-(phenylmethyl)-4-piperidinyl]-2-pyridinamine] | < 100 nM | 543 nM | < 10 nM | – | 49% | – |
| Fc1ccc(-c2n[nH]cc2-c2ccnc(-c3c[nH]nc3-c3ccc(F)cc3)c2)cc1 [Example A-265, 2,4-bis[3-(4-fluorophenyl)-1H-pyrazol-4-yl]pyridine] | < 100 nM | 602 nM | – | – | 32% | – |
| OCCn1cc(-c2ccnc(F)c2)c(-c2ccc(F)cc2)n1 [Example A-267, 3-(4-fluorophenyl)-4-(2-fluoro-4-pyridinyl)-1H-pyrazole-1-ethanol] | 430 nM | 2670 nM | – | – | 80% | – |
| Fc1ccc(-c2n[nH]cc2-c2ccnc(NCCn3ccnc3)c2)cc1 [Example A-268, 4-[3-(4-fluorophenyl)-1H-pyrazol-4-yl]-N-[2-(1H-imidazol-1-yl)ethyl]-2-pyridinamine] | < 100 nM | 7.4 nM | – | – | 11% | – |
| OCCn1cc(-c2ccnc(/C=C/c3ccc(F)cc3)c2)c(-c2ccc(F)cc2)n1 [Example A-270, (E)-3-(4-fluorophenyl)-4-[2-[2-(4-fluorophenyl)ethenyl]-4-pyridinyl]-1H-pyrazole-1-ethanol] | 15 nM | 347 nM | – | – | 53% | – |
| CN(C)CCn1cc(-c2ccnc(F)c2)c(-c2ccc(F)cc2)n1 [Example A-271, 3-(4-fluorophenyl)-4-(2-fluoro-4-pyridinyl)-N,N-dimethyl-1H-pyrazole-1-ethanamine] | 216 nM | 4210 nM | – | – | 68% | – |

The next lines start with results.

| IC50 [1, 2] | IC50 (TNF-α) | IC50 (human p38 kinase alpha) | melting point | Compound | inhibition in vivo at 30 mg/kg (TNF alpha) | IC50 ([1]; p38^2 IC50, p38α in vitro) |
| --- | --- | --- | --- | --- | --- | --- |
| 740 nM | 96.7 nM | 490 nM | – | Cn1cc(-c2ccncc2)c(-c2ccc(F)cc2)n1 [Example A-212, 4-[3-(4-fluorophenyl)-1-methyl-1H-pyrazol-4-yl]pyridine] | 93% | – |
| 60 nM | – | – | 174.38 °C | Cn1nc(-c2ccc(F)cc2)c(-c2ccncc2)c1Br [Example A-214, 4-[5-bromo-3-(4-fluorophenyl)-1-methyl-1H-pyrazol-4-yl]pyridine] | 70% | – |
| 339 nM | 417 nM | 760 nM | – | c1cc(-c2c[nH]nc2-c2ccc3c(c2)OCO3)ccn1 [Example A-228, 4-[3-(1,3-benzodioxol-5-yl)-1H-pyrazol-4-yl]pyridine] | 92% | – |
| 338 nM | – | – | – | Brc1ccc(-c2n[nH]cc2-c2ccncc2)cc1 [Example A-241, 4-[3-(4-bromophenyl)-1H-pyrazol-4yl]pyridine] | 87% | – |
| 47 nM | – | – | – | Cn1cc(-c2ccncc2)c(-c2ccc(F)c(F)c2)n1 [Example A-242, 4-[3-(3,4-difluorophenyl)-1-methyl-1H-pyrazol-4-yl]pyridine] | 87% | – |
| < 1 nM | 33.7 nM | – | – | CC[C@H](C)CNc1cc(-c2c[nH]nc2-c2ccc(Cl)cc2)ccn1 [Example A-245, (S)-4-[3-(4-chlorophenyl)-1H-pyrazol-4-yl]-N-(2-methylbutyl)-2-pyridinamine] | 65% | – |
| 432 nM | – | – | – | Fc1ccc(-c2n[nH]cc2-c2ccnc(F)c2)cc1 [Example A-249, 2-fluoro-4-[3-(4-fluorophenyl)-1H-pyrazol-4-yl]pyridine] | 86% | – |
| 637 nM | – | – | – | Cn1cc(-c2ccncc2)c(-c2ccc(I)cc2)n1 [Example A-251, 4-[3-(4-iodophenyl)-1-methyl-1H-pyrazol-4-yl]pyridine] | 87% | – |
| < 1 nM | 4.4 nM | – | – | CC(Nc1cc(-c2c[nH]nc2-c2ccc(F)cc2)ccn1)c1ccc(F)cc1 (stereo not shown) [Example A-253, N-[1-(4-fluorophenyl)ethyl]-4-[3-(4-fluorophenyl)-1H-pyrazol-4-yl]-2-pyridinamine] | 61% | – |
| 480 nM | 1210 nM | – | – | Cc1cnccc1-c1c[nH]nc1-c1ccc(F)cc1 [Example A-258, 4-[3-(4-fluorophenyl)-1H-pyrazol-4-yl]-3-methylpyridine] | 68% | – |
| 230 nM | 1280 nM | – | – | Cn1cc(-c2ccnc(F)c2)c(-c2ccc(F)c(F)c2)n1 [Example A-260, 4-[3-(3,4-difluorophenyl)-1-methyl-1H-pyrazol-4-yl]-2-fluoropyridine] | 79% | – |
| < 100 nM | 327 nM | – | – | Cn1cc(-c2ccnc(CCc3ccc(F)cc3)c2)c(-c2ccc(F)cc2)n1 [Example A-262, 2-[2-(4-fluorophenyl)ethyl]-4-[3-(4-fluorophenyl)-1-methyl-1H-pyrazol-4-yl]pyridine] | 45% | – |
